Reference: ChEMBL document CHEMBL1152784, “Discovery of 4-substituted methoxybenzoyl-aryl-thiazole as novel anticancer agents: synthesis, biological evaluation, and structure-activity relationships” (J Med Chem, 2009)

Columns and labels:
[1] = Cytotoxicity against mouse B16-F1 cells after 48 hrs by SRB assay; format: functional, cell-based; settings: B16-F1, 48 h
[2] = system: A-375; experiment: Cytotoxicity against human A375 cells after 48 hrs by SRB assay; format: functional, cell-based; settings: A-375, 48 h
[3] = system: PC-3; experiment: Cytotoxicity against human PC3 cells after 96 hrs by SRB assay; settings: PC-3, 96 h
[4] = system: PPC-1; experiment: Cytotoxicity against human PPC1 cells after 96 hrs by SRB assay
[5] = system: DU-145; experiment: Cytotoxicity against human DU145 cells after 96 hrs by SRB assay; settings: DU-145, 96 h
[6] = system: LNCaP; experiment: Cytotoxicity against human LNCAP cells after 96 hrs by SRB assay
[7] = system: DU-145; experiment: Cytotoxicity against human DU145 cells after 48 hrs by SRB assay; format: functional, cell-based; settings: DU-145, 48 h
[8] = species: Bos taurus; experiment: Inhibition of bovine brain tubulin assessed as blockade of microtubule polymerization

| Compound | IC50 [1] [nM] | IC50 [2] [nM] | IC50 [3] [nM] | IC50 ([4]; Homo sapiens, PPC-1, 96 h) [nM] | IC50 [5] [nM] | IC50 ([6]; Homo sapiens, LNCaP, 96 h) [nM] | IC50 [7] [nM] | Activity [8] | IC50 ([4]; ppc-1) [nM] | IC50 ([6]; lncap) [nM] |
| --- | --- | --- | --- | --- | --- | --- | --- | --- | --- | --- |
| CCCCCCCCCCCCCCCCC(=O)c1csc(-c2ccccc2)n1 | 18600 | 16000 | > 20000 | > 20000 | > 20000 | > 20000 |  |  |  |  |
| COC(=O)c1ccc(-c2nc(C(=O)c3cc(OC)c(OC)c(OC)c3)cs2)cc1 | > 100000 | > 100000 | > 20000 | > 20000 | > 20000 | > 20000 |  |  |  |  |
| COc1ccc(-c2nc(C(=O)c3cc(OC)c(OC)c(OC)c3)cs2)cc1OC | 161 | 34 | 69 | 56 |  | 38 | 102000 |  |  |  |
| COc1cc(C(=O)c2cscn2)cc(OC)c1OC | > 100000 | > 100000 | > 20000 | > 20000 | > 20000 | > 20000 |  |  |  |  |
| COc1cc(C(=O)c2csc(-c3cccs3)n2)cc(OC)c1OC | 38 | 20 |  | 13 | 22 | 9 |  |  |  |  |
| COc1cc(OC)cc(C(=O)c2csc(-c3ccccc3)n2)c1 | 350 | 170 | 301 | 242 | 424 | 323 |  |  |  |  |
| COc1cc(C(=O)c2csc(-c3ccc(F)cc3)n2)cc(OC)c1OC | 43 | 33 | 13 |  |  | 6 |  |  |  |  |
| O=C(c1ccccc1)c1csc(-c2ccccc2)n1 | > 100000 | > 100000 | > 20000 | > 20000 | > 20000 | > 20000 |  |  |  |  |
| COc1ccc(C(=O)c2csc(-c3ccccc3)n2)cc1OC | > 100000 | > 100000 | > 20000 | > 20000 | > 20000 | > 20000 |  |  |  |  |
| COc1cc(C(=O)c2csc(-c3ccc(C(F)(F)F)cc3)n2)cc(OC)c1OC |  | 23 | 58 | 76 | 50 | 94 |  |  |  |  |
| COc1cc(C(=O)c2csc(-c3ccc(N)cc3)n2)cc(OC)c1OC | 29 | 11 | 12 | 15 | 20 | 13 |  |  |  |  |
| COc1cc(C(=O)c2csc(-c3ncccn3)n2)cc(OC)c1OC |  | 4100 | 2660 | 1190 | 2810 | 2370 |  |  |  |  |
| COc1cc(C(=O)c2csc(-c3ccccc3F)n2)cc(OC)c1OC | 27 | 30 | 82 | 52 | 114 | 53 |  |  |  |  |
| COc1cc(C(=O)c2csc(-c3ccc(C(=O)O)cc3)n2)cc(OC)c1OC | > 100000 | > 100000 | > 20000 | > 20000 | > 20000 | > 20000 |  |  |  |  |
| COc1cc(C(=O)c2csc(-c3ccc(C)cc3)n2)cc(OC)c1OC | 21 | 11 | 5 | 6 | 7 |  |  |  |  |  |
| COc1ccc(C(=O)c2csc(-c3ccccc3)n2)cc1 | > 100000 | > 100000 | > 20000 | > 20000 | > 20000 | > 20000 |  |  |  |  |
| COc1cc(NC(=O)[C@@H]2CSC(c3ccccc3)N2)cc(OC)c1OC (mixture of isomers) | > 100000 | > 100000 | > 20000 | > 20000 | > 20000 | > 20000 |  |  |  |  |
| COc1cc(C(=O)c2csc(-c3ccc(Br)cc3)n2)cc(OC)c1OC | 32 | 13 | 18 | 21 | 21 | 44 |  |  |  |  |

| Compound | IC50 [1] [nM] | IC50 [2] [nM] | IC50 [3] [nM] | IC50 ([4]; Homo sapiens, PPC-1, 96 h) [nM] | IC50 [5] [nM] | IC50 ([6]; Homo sapiens, LNCaP, 96 h) [nM] | IC50 [7] [nM] | Activity [8] | IC50 ([4]; ppc-1) [nM] | IC50 ([6]; lncap) [nM] |
| --- | --- | --- | --- | --- | --- | --- | --- | --- | --- | --- |
| COc1cc(NC(=O)[C@@H]2CSC(c3ccccc3)=N2)cc(OC)c1OC | 38300 | 22800 | > 20000 | 5300 | > 20000 | > 20000 |  |  |  |  |
| COc1cc(C(=O)c2csc(-c3ccccc3)n2)cc(OC)c1OC | 55 | 28 | 21 | 43 | 71 | 28 |  | Dose-dependent effect |  |  |
| COc1cc(NC(=O)[C@@H]2CSC(c3cc(OC)c(OC)c(OC)c3)N2)cc(OC)c1OC (mixture of isomers) | > 100000 | > 100000 | > 20000 | > 20000 | > 20000 | > 20000 |  |  |  |  |
| CCCCCCCCCCCCCCCCNC(=O)[C@@H]1CSC(c2ccc(NC(C)=O)cc2)N1 (mixture of isomers) | 2200 | 2100 |  | 400 | 1700 | 1000 |  |  |  |  |
| COc1cc(NC(=O)[C@H]2CSC(c3ccccc3)=N2)cc(OC)c1OC | 30400 |  | 13200 | 3400 | > 20000 | 16800 |  |  |  |  |
| O=C(c1ccccn1)c1csc(-c2ccccc2)n1 | > 100000 | > 100000 | > 20000 | > 20000 | > 20000 | > 20000 |  |  |  |  |
| COc1ccccc1C(=O)c1csc(-c2ccccc2)n1 | 59400 | 70300 | > 20000 | > 20000 | > 20000 | > 20000 |  |  |  |  |
| COc1cc(C(=O)c2csc(-c3ccc(C#N)cc3)n2)cc(OC)c1OC |  | 59 | 30 | 19 | 52 | 15 |  |  |  |  |
| COc1cccc(C(=O)c2csc(-c3ccccc3)n2)c1 | > 100000 | > 100000 | > 20000 | > 20000 | > 20000 | > 20000 |  |  |  |  |
| CCc1ccc(-c2nc(C(=O)c3cc(OC)c(OC)c(OC)c3)cs2)cc1 | 70 |  | 27 | 22 | 31 | 60 |  |  |  |  |
| COc1cc(C(=O)c2csc(-c3cccc(F)c3)n2)cc(OC)c1OC | 287 | 304 | 24 | 21 | 35 | 11 |  |  |  |  |
| COc1cc(C(=O)c2csc(-c3ccc([N+](=O)[O-])cc3)n2)cc(OC)c1OC |  |  | 56 | 34 | 95 | 39 |  |  |  |  |
| O=C(c1cc(O)c(O)c(O)c1)c1csc(-c2ccccc2)n1 | > 100000 | > 100000 | > 20000 | > 20000 | > 20000 | > 20000 |  |  |  |  |
| COc1cc(NC(=O)c2csc(-c3ccccc3)n2)cc(OC)c1OC | > 100000 | > 100000 | > 20000 | > 20000 | > 20000 | > 20000 |  |  |  |  |
| COc1cc(C(=O)c2csc(-c3ccncc3)n2)cc(OC)c1OC [listing 1 of 2 here] |  |  |  |  |  |  |  |  | 18000 | 16600 |
| COc1cc(C(=O)c2csc(-c3ccncc3)n2)cc(OC)c1OC [listing 2 of 2 here] | > 100000 | > 100000 | > 20000 | > 20000 | > 20000 | > 20000 |  |  |  |  |
| CC(=O)Nc1ccc(C2N[C@H](C(=O)Nc3ccc4c(c3)Cc3ccccc3-4)CS2)cc1 (mixture of isomers) |  |  | 2100 | 1600 | 1900 | 3500 |  |  |  |  |
| O=C(c1csc(-c2ccccc2)n1)c1ccccc1F | > 100000 | > 100000 | > 20000 | > 20000 | > 20000 | > 20000 |  |  |  |  |
